The record followed here is patent US11208396B2, “Oxime compounds as agonists of the muscarinic M1 and/or M4 receptor” (Heptares Therapeutics Limited, priority 2015, dated 2021).

Common to all, as to type: cell-based
For assay [1], the target named is T1, human muscarinic M3 receptor (Homo sapiens, UniProt P20309).
T1 construct: expressed in transfected cells
The assay is described as follows: Alphascreen Surefire phospho-ERK1/2 functional assay, M3. The note with it: for % Emax cf. ACh, M3 / pEC50 M3 / EC50: CHO cells stably expressing human M3; for % Emax cf. ACh, M3 / Emax: Emax compared with ACh; for pEC50 M3 / EC50: agonist 5 min, 37° C.; for EC50: read-out: pEC50 M3 (converted); for Emax: CHO, read-out: % Emax cf. ACh, M3, CHO cells stably expressing human M3. As for the experimental part: (§1) ERK1/2 phosphorylation is a downstream consequence of both Gq/11 and Gi/o protein coupled receptor activation, making it highly suitable for the assessment of M1, M3 (Gq/11 coupled) and M2, M4 receptors (Gi/o coupled), rather than using different assay formats for different receptor subtypes. CHO cells stably expressing the human muscarinic M1, M2, M3 or M4 receptor were plated (25K/well) onto 96-well tissue culture plates in MEM-alpha+10% dialysed FBS. Once adhered, cells were serum-starved overnight. Agonist stimulation was performed by the addition of 5 μL agonist to the cells for 5 min (37° C.). Media was removed and 50 μL of lysis buffer added. After 15 min, a 4 μL sample was transferred to 384-well plate and 7 μL of detection mixture added. Plates were incubated for 2 h with gentle agitation in the dark and then read on a PHERAstar plate reader.
(§2) pEC50 and Emax figures were calculated from the resulting data for each receptor subtype.
For orientation: Bead proximity is the source of the signal in Alpha formats.

For assay [2], the target named is T2, human muscarinic M1 receptor (Homo sapiens, UniProt P11229).
T2 sequence (P11229 1-460): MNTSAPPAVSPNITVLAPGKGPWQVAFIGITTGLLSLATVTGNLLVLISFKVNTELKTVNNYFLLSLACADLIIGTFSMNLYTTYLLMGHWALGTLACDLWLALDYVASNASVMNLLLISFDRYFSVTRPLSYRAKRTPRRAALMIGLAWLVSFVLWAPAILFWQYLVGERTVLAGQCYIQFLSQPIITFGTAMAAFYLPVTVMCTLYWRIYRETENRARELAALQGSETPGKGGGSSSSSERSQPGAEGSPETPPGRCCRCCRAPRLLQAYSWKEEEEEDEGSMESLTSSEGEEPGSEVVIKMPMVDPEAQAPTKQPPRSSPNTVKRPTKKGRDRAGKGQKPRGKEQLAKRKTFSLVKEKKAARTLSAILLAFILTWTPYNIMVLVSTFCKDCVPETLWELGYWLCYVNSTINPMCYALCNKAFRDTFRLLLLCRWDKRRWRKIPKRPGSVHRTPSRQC
The experiment in a line: Alphascreen Surefire phospho-ERK1/2 functional assay, M1. The note with it: for % Emax cf. ACh, M1 / Emax: Emax compared with ACh; for EC50: read-out: pEC50 M1 (converted); for Emax: CHO, read-out: % Emax cf. ACh, M1, CHO cells stably expressing human M1. As to the method:
as §1, §2

Assay [3] has as its target T3, human muscarinic M4 receptor (Homo sapiens, UniProt P08173).
T3 construct: expressed in transfected cells
T3 sequence (P08173 1-479): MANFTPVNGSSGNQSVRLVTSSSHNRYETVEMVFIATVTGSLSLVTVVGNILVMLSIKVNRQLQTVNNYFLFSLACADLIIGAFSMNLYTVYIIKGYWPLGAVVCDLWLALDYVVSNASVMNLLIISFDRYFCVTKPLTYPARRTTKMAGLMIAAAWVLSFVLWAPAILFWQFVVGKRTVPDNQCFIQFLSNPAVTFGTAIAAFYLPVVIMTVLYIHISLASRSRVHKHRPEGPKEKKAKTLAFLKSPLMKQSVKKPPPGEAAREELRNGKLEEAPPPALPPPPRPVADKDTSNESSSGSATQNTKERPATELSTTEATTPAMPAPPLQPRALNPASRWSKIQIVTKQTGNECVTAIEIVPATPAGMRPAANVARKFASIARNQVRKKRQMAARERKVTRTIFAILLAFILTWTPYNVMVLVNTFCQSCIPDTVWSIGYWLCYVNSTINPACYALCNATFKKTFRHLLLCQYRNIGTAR
The assay is described as follows: Alphascreen Surefire phospho-ERK1/2 functional assay, M4. Particulars: for % Emax cf. ACh, M4 / EC50 / pEC50 M4: CHO cells stably expressing human M4; for % Emax cf. ACh, M4 / Emax: Emax compared with ACh; for EC50 / pEC50 M4: agonist 5 min, 37° C.; for EC50: read-out: pEC50 M4 (converted); for Emax: CHO, read-out: % Emax cf. ACh, M4, CHO cells stably expressing human M4. As for the experimental part:
as §1, §2

Assay [4] concerns the target T4, human muscarinic M2 receptor (Homo sapiens, UniProt P08172).
T4 sequence (P08172 1-466): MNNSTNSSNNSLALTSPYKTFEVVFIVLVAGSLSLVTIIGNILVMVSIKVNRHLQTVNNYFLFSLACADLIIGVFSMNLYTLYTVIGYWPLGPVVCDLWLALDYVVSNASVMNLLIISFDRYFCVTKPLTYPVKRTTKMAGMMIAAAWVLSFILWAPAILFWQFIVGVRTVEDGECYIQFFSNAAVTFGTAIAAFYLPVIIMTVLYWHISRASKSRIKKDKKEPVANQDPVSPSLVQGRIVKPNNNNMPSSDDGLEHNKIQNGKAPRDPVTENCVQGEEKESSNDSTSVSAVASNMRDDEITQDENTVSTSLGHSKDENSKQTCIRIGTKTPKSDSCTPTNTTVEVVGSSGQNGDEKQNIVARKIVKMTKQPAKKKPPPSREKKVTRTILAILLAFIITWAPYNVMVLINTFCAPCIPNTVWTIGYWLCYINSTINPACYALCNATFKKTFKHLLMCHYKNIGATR
The assay is described as follows: Alphascreen Surefire phospho-ERK1/2 functional assay, M2. The note with it: for % Emax cf. ACh, M2 / pEC50 M2 / EC50: CHO cells stably expressing human M2; for % Emax cf. ACh, M2 / Emax: Emax compared with ACh; for pEC50 M2 / EC50: agonist 5 min, 37° C.; for EC50: read-out: pEC50 M2 (converted); for Emax: CHO, read-out: % Emax cf. ACh, M2, CHO cells stably expressing human M2. As to the method: as §1, §2

Setting [5] is: CHO cells stably expressing human M1.
Setting [6] is: CHO cells stably expressing human M1, agonist 5 min, 37° C.

SMILES strings stand for the structures. Bounds are passed on as bounds.

T1 sequence (P20309 whole entry): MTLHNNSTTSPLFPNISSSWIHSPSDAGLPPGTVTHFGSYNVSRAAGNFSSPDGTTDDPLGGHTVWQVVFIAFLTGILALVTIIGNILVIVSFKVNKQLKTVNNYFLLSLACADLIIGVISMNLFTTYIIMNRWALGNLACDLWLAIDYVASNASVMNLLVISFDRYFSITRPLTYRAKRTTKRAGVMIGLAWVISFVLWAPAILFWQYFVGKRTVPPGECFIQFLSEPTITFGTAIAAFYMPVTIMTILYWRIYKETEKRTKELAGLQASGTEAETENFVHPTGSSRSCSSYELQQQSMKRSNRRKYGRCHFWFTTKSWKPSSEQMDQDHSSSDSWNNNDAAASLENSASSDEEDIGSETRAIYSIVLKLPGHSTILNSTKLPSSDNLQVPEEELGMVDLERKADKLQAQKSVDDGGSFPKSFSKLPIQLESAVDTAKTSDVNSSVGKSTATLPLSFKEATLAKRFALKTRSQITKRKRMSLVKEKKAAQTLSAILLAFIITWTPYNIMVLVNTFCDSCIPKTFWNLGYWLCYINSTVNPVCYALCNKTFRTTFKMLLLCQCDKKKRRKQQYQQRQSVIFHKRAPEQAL

Regarding `CCOC(=O)N1CCCC(N2CCC(C(CC)=NOC)CC2)CC1` (single isomer, unassigned) [1-2 Isomer 2 (racemic)], in assay [1], the “% Emax cf. ACh, M3” value is reported as 1% and the “pEC50 M3” value is on record as less than 4.7. In addition, the “% Emax cf. ACh, M1” value in assay [2] (setting [5]) came out at 83%. Further, the EC50 in assay [2] (setting [6]) is 398 nM. In assay [3], the “% Emax cf. ACh, M4” value worked out at 94% and the EC50 is 25.1 nM. Besides, in assay [4], the “% Emax cf. ACh, M2” value is on record as 7% and the “pEC50 M2” value is less than 4.7.
`CCCC(=NOC)C1CCN(C2CCCN(C(=O)OCC)CC2)CC1` (single isomer, unassigned) [1-3 Isomer 2 (racemic)]: the EC50 in assay [1] was more than 20000 nM; in assay [2] (setting [6]) it was 63.1 nM; in assay [3] it was 50.1 nM; in assay [4], more than 20000 nM. For the same compound, the results for the Emax in assay [1] and in assay [4] were 17% and 21%, respectively. For the same compound, the “% Emax cf. ACh, M1” value in assay [2] (setting [5]) turned out to be 92%. Besides, the “% Emax cf. ACh, M4” value in assay [3] was determined as 83%.
For the compound `CCOC(=O)N1CCCC(N2CCC(C(=NOC)C(C)C)CC2)CC1` (single isomer, unassigned) [1-4 Isomer 1 (racemic)], the EC50 was more than 20000 nM in assay [1], 398 nM in assay [2] (setting [6]), 50.1 nM in assay [3] and more than 20000 nM in assay [4]. Further, the figures for the Emax in assay [1], in assay [2] and in assay [3] were 5%, 87% and 115%, respectively. In addition, the “% Emax cf. ACh, M2” value in assay [4] is recorded as 24%.
In the case of `CCOC(=O)N1CCC2(CC(N3CCC(C(CC)=NOC)CC3)C2)C1` (single isomer, unassigned) [2-2 Isomer 3], in assay [1], the “% Emax cf. ACh, M3” value is recorded as 2% and the EC50 was more than 20000 nM. Also, in assay [2] (setting [5]), the “% Emax cf. ACh, M1” value is on record as 5%. Besides, in assay [2] (setting [6]), the EC50 is more than 20000 nM. Also, in assay [3], the “% Emax cf. ACh, M4” value is 67% and the EC50 is 50.1 nM. Also, in assay [4], the “% Emax cf. ACh, M2” value came out at 7% and the EC50 is more than 20000 nM.
Consider `CCOC(=O)N1CCC2(CC(N3CCC(C(C)=NOC)CC3)C2)C1` (single isomer, unassigned) [2-1 Mixture of isomers 2], for which the EC50 was more than 20000 nM in assay [1], 200 nM in assay [2] (setting [6]), 63.1 nM in assay [3] and more than 20000 nM in assay [4]. Also, the maximal response (Emax) in assay [1] was found to be 9%; in assay [2] it was 89%; in assay [3], 68%; in assay [4], 71%.
With `CCOC(=O)N1CCCC(N2CCC(C(=NOC)C(C)C)CC2)CC1` (single isomer, unassigned) [1-5 Isomer 2 (racemic)], in assay [1], the “% Emax cf. ACh, M3” value is given as 4% and the “pEC50 M3” value is on record as less than 4.7. In assay [2] (setting [5]), the “% Emax cf. ACh, M1” value is 105%. In assay [2] (setting [6]), the “pEC50 M1” value stood at 6.5. In assay [3], the “% Emax cf. ACh, M4” value amounted to 104% and the “pEC50 M4” value worked out at 7.5. Also, in assay [4], the “% Emax cf. ACh, M2” value is on record as 22% and the “pEC50 M2” value is recorded as less than 4.7.
`CCOC(=O)N1CCCC(N2CCC(C(=NOC)C(C)C)CC2)CC1` (single isomer, unassigned) [1-4 Isomer 2 (racemic)]: in assay [1], the “% Emax cf. ACh, M3” value is 6% and the EC50 was more than 15800 nM. Besides, the “% Emax cf. ACh, M1” value in assay [2] (setting [5]) stood at 95%. The EC50 in assay [2] (setting [6]) is 316 nM. In addition, in assay [3], the “% Emax cf. ACh, M4” value came to 107% and the EC50 was 31.6 nM. Moreover, in assay [4], the “% Emax cf. ACh, M2” value came out at 7% and the EC50 is more than 15800 nM.
In the case of `CCCC(=NOC)C1CCN([C@H]2CCCN(C(=O)OCC)CC2)CC1` (single isomer, unassigned) [(S)-1-3 Isomer 2], the EC50 in assay [1] was more than 20000 nM; in assay [2] (setting [6]), 251 nM; in assay [3], 25.1 nM; in assay [4] it was more than 20000 nM. The Emax in assay [1] worked out at 0%; in assay [2] it was 93%; in assay [3], 126%; in assay [4], 7%.
As for `CCOC(=O)N1CCCC(N2CCC(C(CC)=NOC)CC2)CC1` (single isomer, unassigned) [1-2 Isomer 1 (racemic)], in assay [1], the “% Emax cf. ACh, M3” value is given as 37% and the EC50 was more than 20000 nM. For the same compound, the “% Emax cf. ACh, M1” value in assay [2] (setting [5]) came to 58%. Also, in assay [2] (setting [6]), the EC50 is 501 nM. Further, in assay [3], the EC50 is 79.4 nM and the Emax was 99%. Further, in assay [4], the “% Emax cf. ACh, M2” value worked out at 2% and the EC50 was more than 20000 nM.
Regarding `CCOC(=O)N1CCCC(N2CCC(C(C#N)=NOC(C)C)CC2)CC1` (mixture of isomers) [4-1 Mixture of isomers], the EC50 is more than 20000 nM in assay [1], 100 nM in assay [2] (setting [6]), 79.4 nM in assay [3] and more than 20000 nM in assay [4]. In addition, the Emax was found to be 5% in assay [1], 109% in assay [2], 72% in assay [3] and 4% in assay [4].
Consider `CCOC(=O)N1CCC[C@H](N2CCC(C(C)=NOC)CC2)CC1` (single isomer, unassigned) [(S)-1-1 Isomer 2], for which, in assay [1], the EC50 was more than 20000 nM and the Emax stood at 0%. The “% Emax cf. ACh, M1” value in assay [2] (setting [5]) was found to be 49%. The EC50 in assay [2] (setting [6]) was 501 nM. Besides, in assay [3], the “% Emax cf. ACh, M4” value was 62% and the “pEC50 M4” value was 6.7. Also, in assay [4], the EC50 was more than 20000 nM and the Emax is 7%.
With `CCCC(=NOC)C1CCN(C2CC3(CCN(C(=O)OCC)C3)C2)CC1` (single isomer, unassigned) [2-3 Isomer 4], the EC50 in assay [1] was more than 20000 nM; in assay [2] (setting [6]), 158 nM; in assay [3], 25.1 nM; in assay [4], more than 20000 nM. In addition, the maximum response (Emax) in assay [1] was found to be 7%; in assay [2], 87%; in assay [3] it was 77%; in assay [4] it was 15%.
For the compound `CCOC(=O)N1CCCC(N2CCC(C(CC)=NOC(C)C)CC2)CC1` (single isomer, unassigned) [1-12 Isomer 2 (racemic)], in assay [1], the “% Emax cf. ACh, M3” value is given as 1% and the “pEC50 M3” value is recorded as less than 4.7. In addition, in assay [2] (setting [5]), the “% Emax cf. ACh, M1” value was determined as 72%. Moreover, in assay [2] (setting [6]), the EC50 is 316 nM. For the same compound, in assay [3], the “% Emax cf. ACh, M4” value is listed as 101% and the EC50 was 25.1 nM. In assay [4], the “% Emax cf. ACh, M2” value is on record as 2% and the “pEC50 M2” value was less than 4.7.

As a reminder, the Emax is the size of the effect at its maximum, as opposed to the concentration needed.
